# Results taken from US20190231788A1, “COMPOSITIONS COMPRISING TIMOLOL AND AN ANTI-INFLAMMATORY AGENT” (Almirall, S.A., priority 2016, published 2019).
# What was measured:
# TPA-induced ear oedema [1] = assay: TPA-induced ear oedema model in Balb/c mice, single topical application; assay type: in vivo
# Method: Evaluation of the Anti-Oedema Effect of Ivermectin, Praziquantel and Timolol and Combinations of Timolol with Ivermectin or Praziquantel after a Single Topical Application in the TPA-Induced Ear Oedema Model in Balb/c Mice.
# The oedema is induced by means of a single application to the right ear of the mouse of 10 μl of a solution of TPA (phorbol 12-myristate 13-acetate) in acetone at 0.01%. The test compounds are diluted in acetone and applied with TPA. The weight of the mouse ears is measured at T+6 h and the weight of the left ear is subtracted from the one of the right ear.
# Treatments: • A. Ivermectin is applied at a concentration of 0.1-0.3-1%, • B. Praziquantel is applied at a concentration at 0.3-1-3% • C. Timolol is applied at a concentration at 0.2-0.5-1%.
# For combination studies Ivermectin alone is applied at a concentration of 0.3%, praziquantel alone is applied at 1% and timolol alone is applied at 0.5%. These same strengths are used in the combinations.
# Each graph represents the average weight of the ear oedema of four different groups of treated animals. Each group includes 6 animals. Numbers above the bars indicate the percentage inhibition of the corresponding group of treated animals vs the control group.
# TPA-induced ear oedema [2] = conditions: topical 0.2%; mice; cited from earlier work
# [3] = dose-response study (FIGS. A-C), 1% in acetone applied with TPA, ear weight at T+6 h
# [4] = dose-response study (FIGS. A-C), 0.3% in acetone applied with TPA, ear weight at T+6 h
compound,measurement,setting,value
"CC(C)(C)NC[C@H](O)COc1nsnc1N1CCOCC1 [timolol, (S)-1-(tert-butylamino)-3-[(4-morpholin-4-yl-1,2,5-thiadiazol-3-yl)oxy]propan-2-ol]",inhibition of ear oedema vs control group,"TPA-induced ear oedema [1]; combination study FIG. 1, timolol alone at 0.5%, T+6 h",30%
same,inhibition of ear oedema vs control group,"TPA-induced ear oedema [1]; combination study FIG. 2, timolol alone at 0.5%, T+6 h",16%
same,inhibition of ear oedema vs control group,"TPA-induced ear oedema [1]; dose-response study (FIGS. A-C), 0.2% in acetone applied with TPA, ear weight at T+6 h",6%
same,inhibition of ear oedema vs control group,"TPA-induced ear oedema [1]; dose-response study (FIGS. A-C), 0.5% in acetone applied with TPA, ear weight at T+6 h",23%
same,inhibition of ear oedema vs control group,TPA-induced ear oedema [1]; [3],14%
Brc1c(NC2=NCCN2)ccc2nccnc12 [brimonidine],inhibition of TPA-induced ear oedema,TPA-induced ear oedema [2],50%
"O=C(C1CCCCC1)N1CC(=O)N2CCc3ccccc3C2C1 (racemic) [praziquantel, (RS)-2-(Cyclohexylcarbonyl)-1,2,3,6,7,11b-hexahydro-4H-pyrazino[2,1-a]isoquinolin-4-one]",inhibition of ear oedema vs control group,"TPA-induced ear oedema [1]; combination study FIG. 2, praziquantel alone at 1%, T+6 h",42%
same,inhibition of ear oedema vs control group,TPA-induced ear oedema [1]; [4],15%
same,inhibition of ear oedema vs control group,TPA-induced ear oedema [1]; [3],48%
same,inhibition of ear oedema vs control group,"TPA-induced ear oedema [1]; dose-response study (FIGS. A-C), 3% in acetone applied with TPA, ear weight at T+6 h",91%
"CC[C@H](C)[C@H]1O[C@]2(CC[C@@H]1C)C[C@@H]1C[C@@H](C/C=C(\C)C(O[C@H]3C[C@H](OC)C(O[C@H]4C[C@H](OC)[C@@H](O)[C@H](C)O4)[C@H](C)O3)[C@@H](C)/C=C/C=C3\CO[C@@H]4[C@H](O)C(C)=C[C@@H](C(=O)O1)[C@]34O)O2 (some centres unmarked) [ivermectin, 22,23-dihydroavermectin B1a]",inhibition of ear oedema vs control group,"TPA-induced ear oedema [1]; combination study FIG. 1, ivermectin alone at 0.3%, T+6 h",37%
same,inhibition of ear oedema vs control group,"TPA-induced ear oedema [1]; dose-response study (FIGS. A-C), 0.1% in acetone applied with TPA, ear weight at T+6 h",20%
same,inhibition of ear oedema vs control group,TPA-induced ear oedema [1]; [4],43%
same,inhibition of ear oedema vs control group,TPA-induced ear oedema [1]; [3],82%
